{
  "source": "paper PMC5986654",
  "about": "“Combined HAT/EZH2 modulation leads to cancer-selective cell death” (Oncotarget, 2018)",
  "assay": "Stability of MC2884 in cell culture medium (RP-HPLC)",
  "type": "physicochemical",
  "method": "The compound was dissolved in DMEM at 50 µM and its concentration was measured by RP-HPLC using a ONYX 50 × 2 mm ID C18 column operating at 600 µL/min. The gradient applied was from 1% solvent B to 70% solvent B in 10 minutes. Solvent A was water with added 0.1% trifluoroacetic acid (TFA) and solvent B was acetonitrile with added 0.1% TFA. The eluate was monitored using a diode array detector with wavelengths set between 200–320 nm. The compound was eluted at 11.1 min. Peak integration was carried out on the chromatogram extracted at […], which is one of the compound absorbance maxima. A calibration curve was built by injecting solutions of the compound in DMSO at concentrations ranging between 1.5 µM and 200 µM. After incubation in DMEM compound concentration was determined at time points ranging between 0 and 72 hrs. As shown, half of compound was degraded after 10 h. At 72 hrs it was fully degraded under these conditions.",
  "data": [
    {"smiles": "O=C1/C(=C/c2cccc(Br)c2)CN(Cc2ccccc2)C/C1=C\\c1cccc(Br)c1", "note": "[MC2884]", "values": [
      {"measurement": "half-life at 50 µM", "setting": "DMEM cell culture medium, read-out: half-life in cell culture media (converted)", "result": 10, "unit": "h"},
      {"measurement": "time for total degradation in cell culture media", "setting": "DMEM, 50 µM", "result": 72, "unit": "h"}
    ]}
  ]
}
